Active and inactive are the calls of the source. The rule behind the calls is not given here.
Experiments:
[1] = Binding affinity to telo24 G-quadruplex DNA (unknown origin) assessed as change of topology from hybrid-type to anti-parallel form by CD spectrometry in presence of KCl
[2] = Binding affinity to telo72 G-quadruplex DNA (unknown origin) assessed as change of topology from hybrid-type to anti-parallel form by CD spectrometry in presence of KCl
[3] = Binding affinity to telo24 G-quadruplex DNA (unknown origin) assessed as compound:telo24 complex formation at ratio of 2:1 after 14 hrs by electrophoresis mobility shift assay
[4] = Binding affinity to telo24 G-quadruplex DNA (unknown origin) assessed as appearance of new bands with longer migration distances after 14 hrs by electrophoresis mobility shift assay
[5] = Stabilization of telo24 G-quadruplex DNA (unknown origin) assessed as melting temperature at 4 eq. by spectropolarimeter analysis in presence of KCl (reference value: 59 degC)
[6] = Stabilization of telo96 G-quadruplex DNA (unknown origin) assessed as melting temperature at 16 eq. by spectropolarimeter analysis in presence of KCl (reference value: 55 degC)
[7] = Binding affinity to telo72 G-quadruplex DNA (unknown origin) assessed as appearance of new bands with longer migration distances after 14 hrs by electrophoresis mobility shift assay
[8] = Binding affinity to telo96 G-quadruplex DNA (unknown origin) assessed as change of topology from hybrid-type to anti-parallel form by CD spectrometry in presence of KCl
[9] = Stabilization of telo48 G-quadruplex DNA (unknown origin) assessed as melting temperature at 8 eq. by spectropolarimeter analysis in presence of KCl (Rvb= 57 degC)
[10] = Stabilization of telo72 G-quadruplex DNA (unknown origin) assessed as melting temperature at 12 eq. by spectropolarimeter analysis in presence of KCl (reference value: 55 degC)
[11] = Binding affinity to telo48 G-quadruplex DNA (unknown origin) assessed as change of topology from hybrid-type to anti-parallel form by CD spectrometry in presence of KCl
[12] = Binding affinity to telo48 G-quadruplex DNA (unknown origin) assessed as appearance of new bands with longer migration distances after 14 hrs by electrophoresis mobility shift assay
[13] = Binding affinity to telo96 G-quadruplex DNA (unknown origin) assessed as appearance of new bands with longer migration distances after 14 hrs by electrophoresis mobility shift assay

SMILES: NCCCC[C@@H]1NC(=O)c2coc(n2)-c2coc(n2)-c2coc(n2)[C@H](CCCCN)NC(=O)c2coc(n2)-c2coc(n2)-c2coc1n2
- Activity [1]: Active
- Activity [2]: Active
- Activity [3]: Active
- Activity [4]: Active
- Tm [5]: 75 °C
- Tm [6]: 70 °C
- Activity [7]: Active
- Activity [8]: Active
- Tm [9]: 76 °C
- Tm [10]: 73 °C
- Activity [11]: Active
- Activity [12]: Active
- Activity [13]: Active

Reference: ChEMBL document CHEMBL3217495, “Interaction of long telomeric DNAs with macrocyclic hexaoxazole as a G-quadruplex ligand” (Medchemcomm, 2013)
